According to the NIST ThermoML archive (doi:10.1016/j.jct.2016.10.005):
Numbers after ± are expanded uncertainties.

Assay: excess molar enthalpy (molar enthalpy of mixing); xn = mol fraction of the nth substance listed
Details: 100 kPa, Liquid, Flow calorimetry

Compound `C1CCCCC1` [cyclohexane] + CCCO has an excess molar enthalpy (298.15 K, x1 = 0.0503) of 0.0217 ± 0.00239 kcal/mol, an excess molar enthalpy (298.15 K, x1 = 0.1005) of 0.0413 ± 0.00263 kcal/mol and an excess molar enthalpy (298.15 K, x1 = 0.1499) of 0.059 ± 0.00263 kcal/mol. It also gave an excess molar enthalpy (298.15 K, x1 = 0.2005) of 0.0755 ± 0.00263 kcal/mol, an excess molar enthalpy (298.15 K, x1 = 0.2499) of 0.0903 ± 0.00263 kcal/mol and an excess molar enthalpy (298.15 K, x1 = 0.3005) of 0.104 ± 0.00263 kcal/mol. For the same compound, the excess molar enthalpy (298.15 K, x1 = 0.3503) was 0.116 ± 0.00263 kcal/mol, the excess molar enthalpy (298.15 K, x1 = 0.4003) was 0.127 ± 0.00263 kcal/mol and the excess molar enthalpy (298.15 K, x1 = 0.4501) was 0.136 ± 0.00263 kcal/mol. For the same compound, the excess molar enthalpy (298.15 K, x1 = 0.4998) was 0.143 ± 0.00263 kcal/mol, the excess molar enthalpy (298.15 K, x1 = 0.5504) was 0.149 ± 0.00263 kcal/mol and the excess molar enthalpy (298.15 K, x1 = 0.6006) was 0.152 ± 0.00263 kcal/mol. It also gave an excess molar enthalpy (298.15 K, x1 = 0.6503) of 0.153 ± 0.00263 kcal/mol, an excess molar enthalpy (298.15 K, x1 = 0.6995) of 0.152 ± 0.00263 kcal/mol and an excess molar enthalpy (298.15 K, x1 = 0.8005) of 0.139 ± 0.00263 kcal/mol. The excess molar enthalpy (298.15 K, x1 = 0.8497) was 0.127 ± 0.00263 kcal/mol, the excess molar enthalpy (298.15 K, x1 = 0.9005) was 0.109 ± 0.00263 kcal/mol and the excess molar enthalpy (298.15 K, x1 = 0.9502) was 0.0827 ± 0.00263 kcal/mol. For the same compound, the excess molar enthalpy (313.15 K, x1 = 0.0503) was 0.0256 ± 0.00263 kcal/mol, the excess molar enthalpy (313.15 K, x1 = 0.1005) was 0.0497 ± 0.00263 kcal/mol and the excess molar enthalpy (313.15 K, x1 = 0.1499) was 0.0717 ± 0.00263 kcal/mol. For the same compound, the excess molar enthalpy (313.15 K, x1 = 0.2005) was 0.0927 ± 0.00263 kcal/mol, the excess molar enthalpy (313.15 K, x1 = 0.2498) was 0.112 ± 0.00263 kcal/mol and the excess molar enthalpy (313.15 K, x1 = 0.3004) was 0.129 ± 0.00263 kcal/mol. For the same compound, the excess molar enthalpy (313.15 K, x1 = 0.3502) was 0.145 ± 0.00263 kcal/mol, the excess molar enthalpy (313.15 K, x1 = 0.4001) was 0.159 ± 0.00287 kcal/mol and the excess molar enthalpy (313.15 K, x1 = 0.45) was 0.171 ± 0.00287 kcal/mol. For the same compound, the excess molar enthalpy (313.15 K, x1 = 0.4997) was 0.181 ± 0.00287 kcal/mol, the excess molar enthalpy (313.15 K, x1 = 0.5502) was 0.189 ± 0.00287 kcal/mol and the excess molar enthalpy (313.15 K, x1 = 0.6006) was 0.194 ± 0.00287 kcal/mol. It also gave an excess molar enthalpy (313.15 K, x1 = 0.6503) of 0.196 ± 0.00287 kcal/mol, an excess molar enthalpy (313.15 K, x1 = 0.6994) of 0.194 ± 0.00287 kcal/mol and an excess molar enthalpy (313.15 K, x1 = 0.7503) of 0.189 ± 0.00287 kcal/mol. It also gave an excess molar enthalpy (313.15 K, x1 = 0.8005) of 0.179 ± 0.00287 kcal/mol, an excess molar enthalpy (313.15 K, x1 = 0.8497) of 0.165 ± 0.00287 kcal/mol and an excess molar enthalpy (313.15 K, x1 = 0.9005) of 0.143 ± 0.00287 kcal/mol. For the same compound, the excess molar enthalpy (313.15 K, x1 = 0.9502) was 0.11 ± 0.00287 kcal/mol.
With `CC1CCCCC1` [methylcyclohexane] + CCCO the excess molar enthalpy (298.15 K, x1 = 0.0498) was 0.0179 ± 0.00239 kcal/mol, the excess molar enthalpy (298.15 K, x1 = 0.1005) was 0.0344 ± 0.00239 kcal/mol and the excess molar enthalpy (298.15 K, x1 = 0.1504) was 0.0495 ± 0.00239 kcal/mol. For the same compound, the excess molar enthalpy (298.15 K, x1 = 0.2) was 0.0633 ± 0.00263 kcal/mol, the excess molar enthalpy (298.15 K, x1 = 0.2504) was 0.0767 ± 0.00263 kcal/mol and the excess molar enthalpy (298.15 K, x1 = 0.3005) was 0.0889 ± 0.00263 kcal/mol. The excess molar enthalpy (298.15 K, x1 = 0.3501) was 0.1 ± 0.00263 kcal/mol, the excess molar enthalpy (298.15 K, x1 = 0.3998) was 0.11 ± 0.00263 kcal/mol and the excess molar enthalpy (298.15 K, x1 = 0.4503) was 0.12 ± 0.00263 kcal/mol. For the same compound, the excess molar enthalpy (298.15 K, x1 = 0.5004) was 0.127 ± 0.00263 kcal/mol, the excess molar enthalpy (298.15 K, x1 = 0.55) was 0.134 ± 0.00263 kcal/mol and the excess molar enthalpy (298.15 K, x1 = 0.5998) was 0.138 ± 0.00263 kcal/mol. The excess molar enthalpy (298.15 K, x1 = 0.6497) was 0.14 ± 0.00263 kcal/mol, the excess molar enthalpy (298.15 K, x1 = 0.6995) was 0.14 ± 0.00263 kcal/mol and the excess molar enthalpy (298.15 K, x1 = 0.7505) was 0.137 ± 0.00263 kcal/mol. It also gave an excess molar enthalpy (298.15 K, x1 = 0.7996) of 0.131 ± 0.00263 kcal/mol, an excess molar enthalpy (298.15 K, x1 = 0.8495) of 0.121 ± 0.00263 kcal/mol and an excess molar enthalpy (298.15 K, x1 = 0.9002) of 0.107 ± 0.00263 kcal/mol. For the same compound, the excess molar enthalpy (313.15 K, x1 = 0.0498) was 0.0239 ± 0.00263 kcal/mol, the excess molar enthalpy (313.15 K, x1 = 0.1005) was 0.0466 ± 0.00263 kcal/mol and the excess molar enthalpy (313.15 K, x1 = 0.1505) was 0.0676 ± 0.00263 kcal/mol. The excess molar enthalpy (313.15 K, x1 = 0.2) was 0.0872 ± 0.00263 kcal/mol, the excess molar enthalpy (313.15 K, x1 = 0.2504) was 0.106 ± 0.00263 kcal/mol and the excess molar enthalpy (313.15 K, x1 = 0.3005) was 0.123 ± 0.00263 kcal/mol. The excess molar enthalpy (313.15 K, x1 = 0.3502) was 0.139 ± 0.00263 kcal/mol, the excess molar enthalpy (313.15 K, x1 = 0.3998) was 0.153 ± 0.00287 kcal/mol and the excess molar enthalpy (313.15 K, x1 = 0.4503) was 0.166 ± 0.00287 kcal/mol. The excess molar enthalpy (313.15 K, x1 = 0.5005) was 0.177 ± 0.00287 kcal/mol, the excess molar enthalpy (313.15 K, x1 = 0.55) was 0.187 ± 0.00287 kcal/mol and the excess molar enthalpy (313.15 K, x1 = 0.5999) was 0.191 ± 0.00287 kcal/mol. It also gave an excess molar enthalpy (313.15 K, x1 = 0.6497) of 0.194 ± 0.00287 kcal/mol, an excess molar enthalpy (313.15 K, x1 = 0.6995) of 0.193 ± 0.00287 kcal/mol and an excess molar enthalpy (313.15 K, x1 = 0.7505) of 0.189 ± 0.00287 kcal/mol. For the same compound, the excess molar enthalpy (313.15 K, x1 = 0.7996) was 0.181 ± 0.00287 kcal/mol, the excess molar enthalpy (313.15 K, x1 = 0.8495) was 0.168 ± 0.00287 kcal/mol and the excess molar enthalpy (313.15 K, x1 = 0.9002) was 0.148 ± 0.00287 kcal/mol. It also gave an excess molar enthalpy (313.15 K, x1 = 0.9499) of 0.116 ± 0.00287 kcal/mol.
